Reference: US20140378416A1, “SILYL-CONTAINING HETEROCYCLIC COMPOUNDS AND METHODS OF USE THEREOF FOR THE TREATMENT OF VIRAL DISEASES” (priority 2011, published 2014)
Like-named read-outs stand apart in the source and are kept apart here.

What was measured:
HCV replicon 1b = assay: Cell-based HCV replicon assay (TaqMan), genotype 1b replicon; settings: HCV 1b replicon cells, replicon RNA by TaqMan on day 3, EC90 = concentration for ΔCT=3.2 over baseline
Protocol: (§1) Measurement of inhibition by compounds of the present invention was performed using the HCV replicon system. Several different replicons encoding different HCV genotypes or mutations were used. In addition, potency measurements were made using different formats of the replicon assay, including different ways of measurements and different plating formats. See Jan M. Vrolijk et al., A replicons-based bioassay for the measurement of interferons in patients with chronic hepatitis C, 110 J. VIROLOGICAL METHODS 201 (2003); Steven S. Carroll et al., Inhibition of Hepatitis C Virus RNA Replication by 2′-Modified Nucleoside Analogs, 278(14) J. BIOLOGICAL CHEMISTRY 11979 (2003). However, the underlying principles are common to all of these determinations, and are outlined below.
(§2) Compounds of the present invention were assayed for cell-based anti-HCV activity using the following protocol. Replicon cells were seeded at 5000 cells/well in 96-well collagen I-coated Nunc plates in the presence of the test compound. Various concentrations of test compound, typically in 10 serial 2-fold dilutions, were added to the assay mixture, with the starting concentration ranging from 250 μM to 1 μM. The final concentration of DMSO was 0.5%, fetal bovine serum was 5%, in the assay media. Cells were harvested on day 3 by the addition of 1× cell lysis buffer (Ambion cat #8721). The replicon RNA level was measured using real time PCR (TaqMan® assay). The amplicon was located in 5B. The PCR primers were: 5B.2F, ATGGACAGGCGCCCTGA (SEQ. ID NO. 1); 5B.2R, […] (SEQ. ID NO. 2); the probe sequence was FAM-labeled CACGCCATGCGCTGCGG (SEQ. ID NO. 3). GAPDH RNA was used as endogenous control and was amplified in the same reaction as NS5B (multiplex PCR) using primers and VIC-labeled probe recommended by the manufacturer (PE Applied Biosystem). The real-time […] reactions were run on ABI PRISM 7900HT Sequence Detection System using the following program: 48° C. for 30 minutes, 95° C. for 10 minutes, 40 cycles of 95° C. for 15 sec, 60° C. for 1 minute. The ACT values (CT5B-CTGAPDH) were plotted against the concentration of test compound and fitted to the sigmoid dose-response model using XLfit4 (MDL). EC50 was defined as the concentration of inhibitor necessary to achieve ΔCT=1 over the projected baseline; EC90 the concentration necessary to achieve ΔCT=3.2 over the baseline. Alternatively, to quantitate the absolute amount of replicon RNA, a standard curve was established by including serially diluted T7 transcripts of replicon RNA in the Taqman assay. All TaqMan® reagents were from PE Applied Biosystems. Such an assay procedure was described in detail in e.g. Malcolm et al., Antimicrobial Agents and Chemotherapy 50: 1013-1020 (2006).
(§3) HCV replicon EC50 assay data for various replicons and mutants was calculated for selected compounds of the present invention using this method and is provided in the tables above herein.

HCV replicon 1a Y93H = assay: Cell-based HCV replicon assay (TaqMan), genotype 1a Y93H mutant replicon; settings: EC90 = concentration for ΔCT=3.2 over baseline
Protocol: as §1, §2, §3

HCV replicon 1a = assay: Cell-based HCV replicon assay (TaqMan), genotype 1a replicon; settings: HCV 1a replicon cells, replicon RNA by TaqMan on day 3, EC90 = concentration for ΔCT=3.2 over baseline
Protocol: as §1, §2, §3

HCV replicon 2b = assay: Cell-based HCV replicon assay (TaqMan), genotype 2b replicon; settings: EC90 = concentration for ΔCT=3.2 over baseline
Protocol: as §1, §2, §3

[1] = Hepatitis C virus, 72 h, read-out: 1a Y93H EC90, HCV 1a Y93H mutant replicon cells, replicon RNA by TaqMan on day 3
[2] = Hepatitis C virus, 72 h, read-out: 2b EC90, HCV 2b replicon cells, replicon RNA by TaqMan on day 3

Structure (SMILES)	EC90 (HCV replicon 1b; Hepatitis C virus, 72 h)	EC90 (HCV replicon 1a Y93H; [1])	EC90 (HCV replicon 1a; Hepatitis C virus, 72 h)	EC90 (HCV replicon 2b; [2])	EC90 (HCV replicon 1b)	EC90 (HCV replicon 1a Y93H; read-out: 1a Y93H EC90, HCV 1a Y93H mutant replicon cells, replicon RNA by TaqMan on day 3)	EC90 (HCV replicon 1a)	EC90 (HCV replicon 2b; read-out: 2b EC90, HCV 2b replicon cells, replicon RNA by TaqMan on day 3)
COC(=O)N[C@@H](C(=O)N1CCC[C@@H]1c1ncc(-c2ccc(-c3ccc(-c4cnc([C@H]5C[Si](C)(C)CN5C(=O)[C@H](NC(=O)OC)C5CCCOCC5)[nH]4)cc3)cc2)[nH]1)C1CCCOCC1 (some centres unmarked) [Compound 21]	18.7 nM	1000 nM	4.42 nM	204 nM				
COC(=O)N[C@H](C(=O)N1CCC[C@@H]1c1ncc(-c2ccc(-c3ccc(-c4cnc([C@H]5C[Si](C)(C)CN5C(=O)[C@@H](NC(=O)OC)C5CC5)[nH]4)cc3)cc2)[nH]1)C1CC1 [Compound 22]	1000 nM	1000 nM	1000 nM	1000 nM				
COC(=O)N[C@H](C(=O)N1CCC[C@H]1c1ncc(-c2ccc(-c3ccc(-c4cnc([C@@H]5C[Si](C)(C)CN5C(=O)[C@@H](NC(=O)OC)C5CCCC5)[nH]4)cc3)cc2)[nH]1)C1CCCC1 [Compound 24]	17.3 nM	1000 nM	2.91 nM	382 nM				
COC(=O)N[C@H](C(=O)N1CCC[C@H]1c1ncc(-c2ccc(-c3ccc(-c4cnc([C@@H]5C[Si](C)(C)CN5C(=O)[C@@H](NC(=O)OC)[C@@H](C)OC)[nH]4)cc3)cc2)[nH]1)[C@@H](C)OC [Compound 25]	4.77 nM	1000 nM	0.72 nM	136 nM				
COC(=O)N[C@@H](Cc1cccc(O)c1)C(=O)N1CCC[C@H]1c1ncc(-c2ccc(-c3ccc(-c4cnc([C@@H]5C[Si](C)(C)CN5C(=O)[C@H](Cc5cccc(O)c5)NC(=O)OC)[nH]4)cc3)cc2)[nH]1 [Compound 26]	387 nM	1000 nM	11.5 nM	1000 nM				
COC(=O)N[C@@H](Cn1ncnn1)C(=O)N1CCC[C@H]1c1ncc(-c2ccc(-c3ccc(-c4cnc([C@@H]5C[Si](C)(C)CN5C(=O)[C@H](Cn5ncnn5)NC(=O)OC)[nH]4)cc3)cc2)[nH]1 [Compound 27]	2.17 nM	1000 nM	6.11 nM	138 nM				
COC(=O)N[C@@H](Cc1cn(C)cn1)C(=O)N1CCC[C@H]1c1ncc(-c2ccc(-c3ccc(-c4cnc([C@@H]5C[Si](C)(C)CN5C(=O)[C@H](Cc5cn(C)cn5)NC(=O)OC)[nH]4)cc3)cc2)[nH]1 [Compound 28]	282 nM	1000 nM	11.9 nM	1000 nM				
COC(=O)N[C@@H](Cn1cccn1)C(=O)N1CCC[C@H]1c1ncc(-c2ccc(-c3ccc(-c4cnc([C@@H]5C[Si](C)(C)CN5C(=O)[C@H](Cn5cccn5)NC(=O)OC)[nH]4)cc3)cc2)[nH]1 [Compound 29]	139 nM	1000 nM	5.32 nM	861 nM				
CC[C@H](C)[C@H](NC(=O)OC)C(=O)N1CCC[C@H]1c1ncc(-c2ccc(-c3ccc(-c4cnc([C@@H]5C[Si](C)(C)CN5C(=O)[C@@H](NC(=O)OC)[C@@H](C)CC)[nH]4)cc3)cc2)[nH]1 [Compound 30]					7.63 nM	610 nM	1.33 nM	248 nM
COC(=O)N[C@H](C(=O)N1CCC[C@H]1c1ncc(-c2ccc(-c3ccc(-c4cnc([C@@H]5C[Si](C)(C)CN5C(=O)[C@@H](NC(=O)OC)C5CCCCC5)[nH]4)cc3)cc2)[nH]1)C1CCCCC1 [Compound 34]	0.04 nM	> 1000 nM	2.5 nM	648 nM				
COC(=O)N[C@H](C(=O)N1CCC[C@H]1c1nc(Cl)c(-c2ccc(-c3ccc(-c4[nH]c([C@@H]5C[Si](C)(C)CN5C(=O)[C@@H](NC(=O)OC)C(C)C)nc4Cl)cc3)cc2)[nH]1)C(C)C [Compound 41]	217 nM	189 nM	0.26 nM	100 nM				
COC(=O)N[C@H](C(=O)N1C[Si](C)(C)C[C@H]1c1nc(Cl)c(-c2ccc(-c3ccc(-c4[nH]c([C@@H]5C[C@H]6C[C@H]6N5C(=O)[C@@H](NC(=O)OC)C(C)C)nc4F)cc3)cc2)[nH]1)C(C)C [Compound 45]	0.017 nM	144 nM	0.13 nM	66 nM				
COC(=O)N[C@@H](C)C(=O)N1C[Si](C)(C)C[C@H]1c1nc(Cl)c(-c2ccc(-c3ccc(-c4[nH]c([C@@H]5C[C@H]6C[C@H]6N5C(=O)[C@H](C)NC(=O)OC)nc4Cl)cc3)cc2)[nH]1 [Compound 52]	0.007 nM	9.5 nM	0.021 nM	57 nM				
COC(=O)N[C@H](C(=O)N1C[Si](C)(C)C[C@H]1c1nc(Cl)c(-c2ccc(-c3ccc(-c4[nH]c([C@@H]5C[C@H]6C[C@H]6N5C(=O)[C@@H](NC(=O)OC)C5CC5)nc4Cl)cc3)cc2)[nH]1)C1CC1 [Compound 53]	0.01 nM	26.8 nM	0.01 nM	11.3 nM				
CCN(CC)[C@@H](C(=O)N1C[Si](C)(C)C[C@H]1c1nc(Cl)c(-c2ccc(-c3ccc(-c4[nH]c([C@@H]5C[C@H]6C[C@H]6N5C(=O)[C@@H](c5ccccc5)N(CC)CC)nc4Cl)cc3)cc2)[nH]1)c1ccccc1 [Compound 55]	0.019 nM	16.4 nM	0.047 nM	0.16 nM				
COC(=O)N[C@H](C(=O)N1C[C@H](F)C[C@H]1c1ncc(-c2ccc(C#Cc3ccc(-c4cnc([C@@H]5C[Si](C)(C)CN5C(=O)[C@@H](NC(=O)OC)C(C)C)[nH]4)cc3)cc2)[nH]1)C(C)C [Compound 58]	0.03 nM	> 100 nM	> 1 nM	> 100 nM				
COC(=O)N[C@H](C(=O)N1C[C@H](F)C[C@H]1c1ncc(-c2ccc(C#Cc3ccc(-c4cnc([C@@H]5C[Si](C)(C)CN5C(=O)[C@@H](NC(=O)OC)C(C)OC)[nH]4)cc3)cc2)[nH]1)C(C)C (some centres unmarked) [Compound 59]	0.02 nM	> 100 nM	> 1 nM	> 100 nM				
COC(=O)N[C@H](C(=O)N1C[Si](C)(C)C[C@H]1c1ncc(-c2ccc(-c3ccc(-c4ncc([C@@H]5C[C@H]6C[C@H]6N5C(=O)[C@@H](NC(=O)OC)C(C)C)[nH]4)cc3)cc2)[nH]1)C(C)C [Compound 69]	0.019 nM	> 100 nM	0.84 nM	371 nM				
CCS(=O)(=O)N1CCC(NC(=O)c2ccc(-c3ccc(-c4cnc([C@@H]5C[Si](C)(C)CN5C(=O)[C@@H](NC(=O)OC)C(C)C)[nH]4)cc3)cc2)CC1 [Compound 75]	0.028 nM	> 1000 nM	159 nM	> 1000 nM				
COC(=O)N[C@H](C(=O)N1CCC[C@H]1C(=O)Nc1n[nH]c2ccc(-c3ccc(-c4cnc([C@@H]5C[Si](C)(C)CN5C(=O)[C@@H](NC(=O)OC)C(C)C)[nH]4)cc3)cc12)C(C)C [Compound 79]	> 1 nM	> 100 nM	> 1 nM	> 100 nM				
